Data reported in patent US20230054093A1, “TREATMENT” (priority 2019, published 2023).

What was measured:
[1] = target: T1, Streptococcus pneumoniae NanA sialidase CBM (SpCBM, SEQ ID NO: 4) variant Im20 V239T (Streptococcus pneumoniae, UniProt P62575, V239T); assay: Surface plasmon resonance (SPR, Biacore) binding affinity to sialyllactose; parameters: key: Green: green indicates that the variant closely resembles its WT counterpart for that particular characteristic; Green’: pale green (green’) or yellow indicate increasing degrees of differences; Yellow: pale green (green’) or yellow indicate increasing degrees of differences; Orange: Red or orange indicate significant differences; Red or orange indicate significant differences; conditions: qualitative colour code vs WT
T1 construct: SpCBM, residues 121-305 of S. pneumoniae NanA sialidase; 6His (pHISTEV) (cleaved yes); made in house; host or cells: E. coli
From the text: (§1) The 13 soluble proteins were expressed in E. coli and purified by immobilized metal affinity chromatography (IMAC), followed by TEV digestion to remove the 6His-tag, then reverse IMAC and size exclusion chromatography (SEC).
(§2) Ten purified domains (WTSp, Im19, Im20, Im21, Im22, Im23, WTTD, Im24, Im26 and Im27) were further characterized by:
(§3) (iv) Surface plasmon resonance (SPR) to measure binding affinity to sialyllactose

[2] = target: T2, Streptococcus pneumoniae NanA sialidase CBM (SpCBM, residues 121-305), wild type WTSp, SEQ ID NO: 4 (Streptococcus pneumoniae, UniProt P62575); assay: as above; parameters: key: Green: green indicates that the variant closely resembles its WT counterpart for that particular characteristic; Green’: pale green (green’) or yellow indicate increasing degrees of differences; Yellow: pale green (green’) or yellow indicate increasing degrees of differences; Orange: Red or orange indicate significant differences; Red or orange indicate significant differences; conditions: qualitative colour code vs WT
T2 construct: SpCBM, residues 121-305 of S. pneumoniae NanA sialidase; 6His (pHISTEV) (cleaved yes); made in house; host or cells: E. coli
From the text: as §1, §2, §3

[3] = target: T3, Streptococcus pneumoniae NanA sialidase CBM (SpCBM, SEQ ID NO: 4) variant Im19 V239A (Streptococcus pneumoniae, UniProt P62575, V239A); assay: as above; parameters: key: Green: green indicates that the variant closely resembles its WT counterpart for that particular characteristic; Green’: pale green (green’) or yellow indicate increasing degrees of differences; Yellow: pale green (green’) or yellow indicate increasing degrees of differences; Orange: Red or orange indicate significant differences; Red or orange indicate significant differences; conditions: qualitative colour code vs WT
T3 construct: SpCBM, residues 121-305 of S. pneumoniae NanA sialidase; 6His (pHISTEV) (cleaved yes); made in house; host or cells: E. coli
From the text: as §1, §2, §3

[4] = target: T4, Streptococcus pneumoniae NanA sialidase CBM (SpCBM, SEQ ID NO: 4) variant Im22 I286A (Streptococcus pneumoniae, UniProt P62575, I286A); assay: as above; parameters: key: Green: green indicates that the variant closely resembles its WT counterpart for that particular characteristic; Green’: pale green (green’) or yellow indicate increasing degrees of differences; Yellow: pale green (green’) or yellow indicate increasing degrees of differences; Orange: Red or orange indicate significant differences; Red or orange indicate significant differences; conditions: qualitative colour code vs WT
T4 construct: SpCBM, residues 121-305 of S. pneumoniae NanA sialidase; 6His (pHISTEV) (cleaved yes); made in house; host or cells: E. coli
From the text: as §1, §2, §3

[5] = target: T5, Streptococcus pneumoniae NanA sialidase CBM (SpCBM, SEQ ID NO: 4) variant Im21 V246G (Streptococcus pneumoniae, UniProt P62575, V246G); assay: as above; parameters: key: Green: green indicates that the variant closely resembles its WT counterpart for that particular characteristic; Green’: pale green (green’) or yellow indicate increasing degrees of differences; Yellow: pale green (green’) or yellow indicate increasing degrees of differences; Orange: Red or orange indicate significant differences; Red or orange indicate significant differences; conditions: qualitative colour code vs WT
T5 construct: SpCBM, residues 121-305 of S. pneumoniae NanA sialidase; 6His (pHISTEV) (cleaved yes); made in house; host or cells: E. coli
From the text: as §1, §2, §3

[6] = target: T6, Streptococcus pneumoniae NanA sialidase CBM (SpCBM, SEQ ID NO: 4) variant Im23 Y292E (Streptococcus pneumoniae, UniProt P62575, Y292E); assay: as above; parameters: key to Biacore (binding affinity to sialyllactose): Green: green indicates that the variant closely resembles its WT counterpart for that particular characteristic; Green’: pale green (green’) or yellow indicate increasing degrees of differences; Yellow: pale green (green’) or yellow indicate increasing degrees of differences; Orange: Red or orange indicate significant differences; Red or orange indicate significant differences
T6 construct: SpCBM, residues 121-305 of S. pneumoniae NanA sialidase; 6His (pHISTEV) (cleaved yes); made in house; host or cells: E. coli
From the text: as §1, §2, §3

[7] = target: T7, Sp2CBMTD (SpOrig, SEQ ID NO: 7) variant HEX6 V239A/V246G/S342D/R403K, SEQ ID NO: 8 (Streptococcus pneumoniae, UniProt P62575, V239A/V246G); assay: Biacore characterization of hexameric Sp2CBMTD variants; assay type: binding, Streptococcus pneumoniae (CBM); Pseudomonas aeruginosa (TD); parameters: key: Green: green indicates that the variant closely resembles its WT counterpart for that particular characteristic; Green’: pale green (green’) or yellow indicate increasing degrees of differences; Yellow: pale green (green’) or yellow indicate increasing degrees of differences; Orange: Red or orange indicate significant differences; Red or orange indicate significant differences; conditions: qualitative colour code vs WT hexamer
T7 construct: trimerises; pHISTEV 6His, E. coli
From the text: as §3

[8] = target: T8, Sp2CBMTD (SpOrig, SEQ ID NO: 7) variant HEX17 A162P/V239A/V246G/S342D/R403K, SEQ ID NO: 9 (Streptococcus pneumoniae, UniProt P62575, A162P/V239A/V246G); assay: as above; assay type: binding, Streptococcus pneumoniae (CBM); Pseudomonas aeruginosa (TD); parameters: key: Green: green indicates that the variant closely resembles its WT counterpart for that particular characteristic; Green’: pale green (green’) or yellow indicate increasing degrees of differences; Yellow: pale green (green’) or yellow indicate increasing degrees of differences; Orange: Red or orange indicate significant differences; Red or orange indicate significant differences; conditions: qualitative colour code vs WT hexamer
T8 construct: PDB 2w38); trimerises; pHISTEV 6His, E. coli
From the text: as §3

CC(=O)N[C@H]1[C@H]([C@H](O)[C@H](O)CO)O[C@@](O[C@H]2[C@@H](O)[C@@H](CO)O[C@@H](O[C@H]3[C@H](O)[C@@H](O)C(O)O[C@@H]3CO)[C@@H]2O)(C(=O)O)C[C@@H]1O (stereo partly drawn) [sialyllactose]
Biacore (binding affinity to sialyllactose) [1]: Green
Biacore (binding affinity to sialyllactose) [2]: Green
Biacore (binding affinity to sialyllactose) [3]: Green
Biacore (binding affinity to sialyllactose) [4]: Green
Biacore (binding affinity to sialyllactose) [5]: Green
ligand affinity ([6]; in words, compared with WT): reduced ligand affinity
Biacore (binding affinity to sialyllactose) ([6]; qualitative colour code vs WT): Yellow
Biacore [7]: Green
Biacore [8]: Green
